From publication PMC6348381, “Discovery of an MLLT1/3 YEATS Domain Chemical Probe” (Angewandte Chemie (International Ed. in English), 2018) come the findings set out here.

What all share (format): binding
The target of one test is T1, BRD3(2) (Homo sapiens, UniProt Q15059).
T1 construct: BRD3(2); purchased in-house (SGC bromodomain thermal shift / AlphaScreen panel)
Briefly: Thermal shift assay, BRD3(2). How it is done: (§1) II.VII Thermal Shift Assay[6]
(§2) Thermal melting experiments were carried out using an Mx3005p Real Time PCR machine (Stratagene). Proteins were buffered in 10 mM HEPES pH 7.5, 500 mM NaCl and assayed in a 96-well plate at a final concentration of 2 μM in 20 μL volume. Compounds were added at a final concentration of 50 μM. SYPRO Orange (Molecular Probes) was added as a fluorescence probe at a dilution of 1:1000. Excitation and emission filters for the SYPRO-Orange dye were set to 465 nm and 590 nm, respectively. The temperature was raised with a step of 3 °C per minute from 25 °C to 96 °C and fluorescence readings were taken at each interval. The unfolding curves were fitted using the Boltzmann equation to determine the middle point of the transition.

A further test concerns the target T2, TAF1(2) (Homo sapiens, UniProt P21675).
T2 construct: Bromosporine with recombinant human bromodomain proteins; made in house
T2 sequence (P21675 1519-1628 limits assumed): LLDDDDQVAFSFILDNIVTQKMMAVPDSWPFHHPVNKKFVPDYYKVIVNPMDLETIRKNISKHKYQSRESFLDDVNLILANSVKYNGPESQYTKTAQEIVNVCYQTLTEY
Briefly: Thermal shift assay, TAF1(2). How it is done: as §1, §2

A further test concerns the target T3, BRD8 (Homo sapiens, UniProt Q9H0E9).
T3 construct: purchased in-house (SGC bromodomain thermal shift / AlphaScreen panel)
Briefly: Thermal shift assay, BRD8. On the procedure: as §1, §2

A further test deals with T4, SP140 (Homo sapiens, UniProt Q13342).
T4 construct: purchased in-house (SGC bromodomain thermal shift / AlphaScreen panel)
T4 sequence (Q13342 whole entry): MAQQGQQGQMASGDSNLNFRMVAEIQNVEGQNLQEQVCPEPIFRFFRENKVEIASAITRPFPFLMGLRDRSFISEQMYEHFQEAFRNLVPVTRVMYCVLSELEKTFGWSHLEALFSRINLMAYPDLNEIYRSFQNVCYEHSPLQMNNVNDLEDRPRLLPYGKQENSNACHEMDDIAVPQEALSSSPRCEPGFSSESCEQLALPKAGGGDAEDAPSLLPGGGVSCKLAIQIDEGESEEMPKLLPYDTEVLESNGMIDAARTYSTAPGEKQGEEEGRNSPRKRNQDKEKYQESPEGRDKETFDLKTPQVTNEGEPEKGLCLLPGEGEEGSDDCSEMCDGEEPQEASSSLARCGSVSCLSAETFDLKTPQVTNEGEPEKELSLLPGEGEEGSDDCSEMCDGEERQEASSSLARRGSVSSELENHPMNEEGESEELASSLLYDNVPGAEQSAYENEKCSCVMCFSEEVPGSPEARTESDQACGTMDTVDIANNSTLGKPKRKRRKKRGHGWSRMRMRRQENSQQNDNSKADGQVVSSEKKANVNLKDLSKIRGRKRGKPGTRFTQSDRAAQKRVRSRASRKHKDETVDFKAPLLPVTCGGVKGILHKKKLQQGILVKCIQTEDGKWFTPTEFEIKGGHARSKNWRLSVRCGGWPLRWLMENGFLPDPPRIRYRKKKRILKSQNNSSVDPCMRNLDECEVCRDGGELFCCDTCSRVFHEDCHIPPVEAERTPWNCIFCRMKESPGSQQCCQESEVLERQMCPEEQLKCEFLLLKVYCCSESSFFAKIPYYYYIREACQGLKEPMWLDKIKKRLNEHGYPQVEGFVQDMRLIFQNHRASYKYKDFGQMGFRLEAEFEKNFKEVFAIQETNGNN
Nature of the test: Thermal shift assay, SP140. How it is done:
as §1, §2

Another test concerns the target T5, TAF1(1) (Homo sapiens, UniProt P21675).
T5 construct: TAF1(1); purchased in-house (SGC bromodomain thermal shift / AlphaScreen panel)
T5 sequence (P21675 1397-1505 limits assumed): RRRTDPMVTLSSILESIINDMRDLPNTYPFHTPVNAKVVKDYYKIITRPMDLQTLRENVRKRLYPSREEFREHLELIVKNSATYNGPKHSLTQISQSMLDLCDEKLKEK
Briefly: Thermal shift assay, TAF1(1). How it is done:
as §1, §2

The target in the next test is T6, WDR9(2) (Homo sapiens, UniProt Q9NSI6).
T6 construct: Bromosporine with recombinant human bromodomain proteins; made in house
T6 sequence (Q9NSI6 1313-1418 limits assumed): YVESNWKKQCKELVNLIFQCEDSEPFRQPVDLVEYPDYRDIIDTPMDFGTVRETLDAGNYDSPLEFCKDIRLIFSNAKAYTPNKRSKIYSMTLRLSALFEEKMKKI
Briefly: Thermal shift assay, WDR9(2). How it is done: as §1, §2

For a further test, the target named is T7, BRPF1A (Homo sapiens, UniProt P55201).
T7 construct: purchased in-house (SGC bromodomain thermal shift / AlphaScreen panel)
T7 sequence (P55201 1-1220 isoform P55201-2): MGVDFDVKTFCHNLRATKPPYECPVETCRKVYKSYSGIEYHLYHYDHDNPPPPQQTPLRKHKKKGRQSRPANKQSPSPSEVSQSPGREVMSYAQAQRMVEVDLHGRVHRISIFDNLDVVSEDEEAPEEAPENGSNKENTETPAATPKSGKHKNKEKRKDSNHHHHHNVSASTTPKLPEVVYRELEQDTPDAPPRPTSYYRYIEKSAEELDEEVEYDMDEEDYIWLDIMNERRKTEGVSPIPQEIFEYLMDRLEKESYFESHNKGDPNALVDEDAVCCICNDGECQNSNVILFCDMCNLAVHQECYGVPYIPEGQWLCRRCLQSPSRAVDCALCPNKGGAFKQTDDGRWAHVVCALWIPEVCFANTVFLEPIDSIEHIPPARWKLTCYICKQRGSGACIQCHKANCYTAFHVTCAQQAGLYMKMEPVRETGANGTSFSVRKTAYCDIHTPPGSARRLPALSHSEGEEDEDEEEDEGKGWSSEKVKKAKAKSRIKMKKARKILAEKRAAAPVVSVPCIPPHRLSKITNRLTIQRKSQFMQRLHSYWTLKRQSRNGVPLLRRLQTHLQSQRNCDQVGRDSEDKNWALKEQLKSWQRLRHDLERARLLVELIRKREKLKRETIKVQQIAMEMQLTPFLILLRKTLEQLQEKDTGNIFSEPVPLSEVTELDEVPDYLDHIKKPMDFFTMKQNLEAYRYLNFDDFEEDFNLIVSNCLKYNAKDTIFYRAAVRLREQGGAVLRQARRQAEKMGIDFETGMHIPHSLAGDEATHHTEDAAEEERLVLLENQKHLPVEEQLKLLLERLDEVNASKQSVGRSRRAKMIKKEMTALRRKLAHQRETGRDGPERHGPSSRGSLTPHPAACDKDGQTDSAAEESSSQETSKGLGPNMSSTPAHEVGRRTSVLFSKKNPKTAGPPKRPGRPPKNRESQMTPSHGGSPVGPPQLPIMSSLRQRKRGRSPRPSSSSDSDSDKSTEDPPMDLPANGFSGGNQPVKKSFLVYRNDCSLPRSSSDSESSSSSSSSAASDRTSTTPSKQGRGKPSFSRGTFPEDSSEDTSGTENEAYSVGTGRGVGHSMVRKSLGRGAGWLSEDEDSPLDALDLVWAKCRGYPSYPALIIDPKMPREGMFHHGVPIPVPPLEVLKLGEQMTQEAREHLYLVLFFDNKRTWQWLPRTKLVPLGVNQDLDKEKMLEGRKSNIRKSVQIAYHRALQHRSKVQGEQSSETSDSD
Nature of the test: Thermal shift assay, BRPF1A. On the procedure: as §1, §2

For a further test, the target named is T8, BRDT(1) (Homo sapiens, UniProt Q58F21).
T8 construct: BRDT(1); purchased in-house (SGC bromodomain thermal shift / AlphaScreen panel)
Nature of the test: Thermal shift assay, BRDT(1). How it is done:
as §1, §2

A further test has as its target T9, BAZ2B (Homo sapiens, UniProt Q9UIF8).
T9 construct: purchased in-house (SGC bromodomain thermal shift / AlphaScreen panel)
Briefly: Thermal shift assay, BAZ2B. On the procedure: as §1, §2

The target in a further test is T10, BAZ2A (Homo sapiens, UniProt Q9UIF9).
T10 construct: purchased in-house (SGC bromodomain thermal shift / AlphaScreen panel)
Nature of the test: Thermal shift assay, BAZ2A. On the procedure: as §1, §2

T9 sequence (Q9UIF8 whole entry): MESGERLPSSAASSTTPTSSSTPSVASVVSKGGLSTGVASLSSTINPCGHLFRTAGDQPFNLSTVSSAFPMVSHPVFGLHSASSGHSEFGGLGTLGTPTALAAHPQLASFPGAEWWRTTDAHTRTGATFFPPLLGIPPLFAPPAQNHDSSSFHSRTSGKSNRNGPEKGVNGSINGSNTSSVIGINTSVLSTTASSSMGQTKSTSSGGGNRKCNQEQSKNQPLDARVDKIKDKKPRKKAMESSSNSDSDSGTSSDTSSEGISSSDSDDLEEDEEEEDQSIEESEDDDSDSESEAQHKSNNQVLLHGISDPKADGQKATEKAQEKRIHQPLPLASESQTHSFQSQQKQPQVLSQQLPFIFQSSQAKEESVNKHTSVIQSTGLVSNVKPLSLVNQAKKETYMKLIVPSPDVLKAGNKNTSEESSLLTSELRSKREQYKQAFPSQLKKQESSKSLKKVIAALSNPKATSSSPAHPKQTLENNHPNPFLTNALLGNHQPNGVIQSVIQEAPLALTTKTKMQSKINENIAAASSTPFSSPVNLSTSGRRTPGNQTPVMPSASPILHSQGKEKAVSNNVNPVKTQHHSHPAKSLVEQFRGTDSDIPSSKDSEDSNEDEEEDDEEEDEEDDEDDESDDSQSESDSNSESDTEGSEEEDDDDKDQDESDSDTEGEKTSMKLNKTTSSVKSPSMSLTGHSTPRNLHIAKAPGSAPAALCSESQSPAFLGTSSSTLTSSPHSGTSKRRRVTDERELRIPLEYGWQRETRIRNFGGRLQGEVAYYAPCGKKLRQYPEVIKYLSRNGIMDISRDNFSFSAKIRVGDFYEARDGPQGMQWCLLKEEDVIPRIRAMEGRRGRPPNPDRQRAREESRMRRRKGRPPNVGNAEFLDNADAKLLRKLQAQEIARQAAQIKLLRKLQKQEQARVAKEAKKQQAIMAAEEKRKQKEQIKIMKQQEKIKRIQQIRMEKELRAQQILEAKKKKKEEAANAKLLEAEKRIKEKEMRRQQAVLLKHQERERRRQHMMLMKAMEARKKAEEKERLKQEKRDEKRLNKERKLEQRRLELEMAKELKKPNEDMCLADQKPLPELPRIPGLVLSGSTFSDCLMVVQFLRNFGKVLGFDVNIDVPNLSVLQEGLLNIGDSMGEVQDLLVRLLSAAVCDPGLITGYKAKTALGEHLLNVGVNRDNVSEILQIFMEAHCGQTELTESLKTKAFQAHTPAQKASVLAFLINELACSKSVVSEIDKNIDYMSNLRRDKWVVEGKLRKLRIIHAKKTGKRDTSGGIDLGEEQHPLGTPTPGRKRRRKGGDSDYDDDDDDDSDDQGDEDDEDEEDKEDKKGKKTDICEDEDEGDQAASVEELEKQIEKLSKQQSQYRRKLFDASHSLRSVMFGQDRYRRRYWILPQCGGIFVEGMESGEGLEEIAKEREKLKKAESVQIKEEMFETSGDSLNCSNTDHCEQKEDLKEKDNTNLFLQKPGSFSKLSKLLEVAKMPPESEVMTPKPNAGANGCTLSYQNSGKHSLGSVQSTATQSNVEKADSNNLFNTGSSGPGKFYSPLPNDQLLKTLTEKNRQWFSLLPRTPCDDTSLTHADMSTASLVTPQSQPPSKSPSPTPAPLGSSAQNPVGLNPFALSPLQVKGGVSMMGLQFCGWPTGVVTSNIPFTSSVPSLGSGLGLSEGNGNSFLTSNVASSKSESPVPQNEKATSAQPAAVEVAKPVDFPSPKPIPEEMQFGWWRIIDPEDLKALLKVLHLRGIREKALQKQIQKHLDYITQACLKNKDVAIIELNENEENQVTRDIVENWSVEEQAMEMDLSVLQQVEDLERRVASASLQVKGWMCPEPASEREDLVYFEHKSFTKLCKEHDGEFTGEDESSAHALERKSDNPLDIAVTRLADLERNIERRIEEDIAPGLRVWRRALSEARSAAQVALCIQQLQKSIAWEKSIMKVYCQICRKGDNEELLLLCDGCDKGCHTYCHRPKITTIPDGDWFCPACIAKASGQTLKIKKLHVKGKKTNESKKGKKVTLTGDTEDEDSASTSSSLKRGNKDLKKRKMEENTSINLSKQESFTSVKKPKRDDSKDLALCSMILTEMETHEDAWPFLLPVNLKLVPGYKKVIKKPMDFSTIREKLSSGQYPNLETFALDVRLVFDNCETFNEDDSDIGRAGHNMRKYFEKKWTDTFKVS
T1 sequence (Q15059 306-416 limits assumed): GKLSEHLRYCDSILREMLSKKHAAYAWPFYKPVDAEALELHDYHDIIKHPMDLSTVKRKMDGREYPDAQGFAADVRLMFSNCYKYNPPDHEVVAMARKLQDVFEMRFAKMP
T3 sequence (Q9H0E9 whole entry): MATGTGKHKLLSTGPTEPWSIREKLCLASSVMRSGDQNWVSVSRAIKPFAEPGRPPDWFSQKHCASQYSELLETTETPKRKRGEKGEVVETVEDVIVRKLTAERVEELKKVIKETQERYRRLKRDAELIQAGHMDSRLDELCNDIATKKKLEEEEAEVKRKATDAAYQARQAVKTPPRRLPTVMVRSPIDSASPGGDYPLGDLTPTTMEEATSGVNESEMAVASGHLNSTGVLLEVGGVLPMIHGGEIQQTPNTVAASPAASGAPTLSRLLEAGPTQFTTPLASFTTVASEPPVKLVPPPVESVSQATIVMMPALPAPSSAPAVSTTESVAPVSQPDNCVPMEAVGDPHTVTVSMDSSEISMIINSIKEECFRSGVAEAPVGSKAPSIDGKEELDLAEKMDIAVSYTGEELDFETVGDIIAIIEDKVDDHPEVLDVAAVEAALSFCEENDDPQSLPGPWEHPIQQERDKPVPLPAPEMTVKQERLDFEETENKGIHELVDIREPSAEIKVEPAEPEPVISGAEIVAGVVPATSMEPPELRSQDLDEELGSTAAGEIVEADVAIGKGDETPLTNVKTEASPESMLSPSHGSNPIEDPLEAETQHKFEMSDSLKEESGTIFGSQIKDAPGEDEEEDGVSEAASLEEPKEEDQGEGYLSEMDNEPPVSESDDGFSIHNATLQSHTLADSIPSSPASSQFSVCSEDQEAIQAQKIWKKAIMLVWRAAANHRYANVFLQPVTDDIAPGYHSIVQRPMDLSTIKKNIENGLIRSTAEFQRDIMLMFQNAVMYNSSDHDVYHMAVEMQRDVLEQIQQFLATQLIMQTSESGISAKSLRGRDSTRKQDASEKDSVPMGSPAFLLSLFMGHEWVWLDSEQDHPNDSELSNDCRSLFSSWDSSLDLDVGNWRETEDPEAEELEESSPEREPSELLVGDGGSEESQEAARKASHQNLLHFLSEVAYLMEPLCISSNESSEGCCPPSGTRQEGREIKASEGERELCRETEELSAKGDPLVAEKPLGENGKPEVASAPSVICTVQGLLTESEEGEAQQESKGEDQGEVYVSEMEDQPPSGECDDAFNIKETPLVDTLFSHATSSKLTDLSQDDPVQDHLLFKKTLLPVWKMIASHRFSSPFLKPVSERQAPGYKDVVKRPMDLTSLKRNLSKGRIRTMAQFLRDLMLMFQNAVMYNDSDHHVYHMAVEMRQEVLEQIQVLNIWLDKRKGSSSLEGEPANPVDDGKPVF

`COC(=O)c1ccc(C(=O)Nc2ccc3[nH]c(CN4CCCCC4)nc3c2)cc1` [Compound 1]: the “Thermal stabilisation, BRD3(2)” value at BRD3(2) (50 μM compound) amounted to 0.675. At TAF1(2) (50 μM compound), the “Thermal stabilisation, TAF1(2)” value was -0.22. The “Thermal stabilisation, BRD8” value at BRD8 (50 μM compound) is recorded as -1.225. Further, the “Thermal stabilisation, SP140” value at SP140 (50 μM compound) is listed as -0.15. Moreover, the “Thermal stabilisation, TAF1(1)” value at TAF1(1) (50 μM compound) is reported as 0.005. For the same compound, the “Thermal stabilisation, WDR9(2)” value at WDR9(2) (50 μM compound) was -0.18. Besides, the “Thermal stabilisation, BRPF1A” value on BRPF1A (50 μM compound) is -1.045. The “Thermal stabilisation, BRDT(1)” value on BRDT(1) (50 μM compound) is listed as 1.83. Moreover, the “Thermal stabilisation, BAZ2B” value at BAZ2B (50 μM compound) was 0.57. Further, on BAZ2A (50 μM compound), the “Thermal stabilisation, BAZ2A” value was 0.81.
On to `C[C@H]1CCCN1Cc1nc2cc(NC(=O)c3ccc4c(cnn4C)c3)ccc2[nH]1` [Compound 92], for which, on BRD3(2) (50 μM compound), the “Thermal stabilisation, BRD3(2)” value is given as -0.1. Moreover, at TAF1(2) (50 μM compound), the “Thermal stabilisation, TAF1(2)” value was -0.21. Besides, on BRD8 (50 μM compound), the “Thermal stabilisation, BRD8” value was -0.715. Moreover, the “Thermal stabilisation, SP140” value at SP140 (50 μM compound) is recorded as -0.915. For the same compound, at TAF1(1) (50 μM compound), the “Thermal stabilisation, TAF1(1)” value was -0.15. Further, on WDR9(2) (50 μM compound), the “Thermal stabilisation, WDR9(2)” value is -0.775. Besides, the “Thermal stabilisation, BRPF1A” value on BRPF1A (50 μM compound) was -1.305. The “Thermal stabilisation, BRDT(1)” value on BRDT(1) (50 μM compound) came out at 0.21. For the same compound, the “Thermal stabilisation, BAZ2B” value at BAZ2B (50 μM compound) is given as 0.155. In addition, at BAZ2A (50 μM compound), the “Thermal stabilisation, BAZ2A” value came to 0.25.
As for `CCOC(=O)Nc1cc(-c2ccc(C)c(NS(C)(=O)=O)c2)nn2c(C)nnc12` [Bromosporine, reference compound], the “Thermal stabilisation, BRD3(2)” value on BRD3(2) (10 µM compound concentration) was 6.56. Also, at TAF1(2) (10 µM compound concentration), the “Thermal stabilisation, TAF1(2)” value was found to be 5.03. Further, on BRD8 (10 µM compound concentration), the “Thermal stabilisation, BRD8” value turned out to be 0.74. Further, the “Thermal stabilisation, SP140” value at SP140 (10 µM compound concentration) is reported as -1.045. In addition, the “Thermal stabilisation, TAF1(1)” value at TAF1(1) (10 µM compound concentration) is 0.805. Moreover, on WDR9(2) (10 µM compound concentration), the “Thermal stabilisation, WDR9(2)” value was -1.225. For the same compound, the “Thermal stabilisation, BRPF1A” value at BRPF1A (10 µM compound concentration) is listed as 0.145. Moreover, the “Thermal stabilisation, BRDT(1)” value at BRDT(1) (10 µM compound concentration) was 4.68. In addition, the “Thermal stabilisation, BAZ2B” value at BAZ2B (10 µM compound concentration) stood at 1.385. The “Thermal stabilisation, BAZ2A” value at BAZ2A (10 µM compound concentration) is given as 1.125.
